In PubChem BioAssay AID1357 (Sanford-Burnham Center for Chemical Genomics, 2008):
Activity calls are given as the source filed them.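 Rule for the calls: active = no band for the stress protein CHOP on the immunoblot after the stress trigger, its induction blocked; inactive = CHOP band still seen after the stress trigger.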

Test system: CSM14.1 cells, thapsigargin-induced CHOP Western blot
Experiment: blocking ER stress CHOP protein upregulation – thapsigargin stimulus, CSM14.1 cells, Western blot, mechanism study for ER stress cell death inhibitors (AID 1357)

| Compound | outcome |
| --- | --- |
| CSc1ccc(C2Nc3ccccc3NC3=C2C(=O)CC(c2ccccc2)C3)cc1 (stereo unspecified) | inactive |
| CC1(C)CC(=O)C2=C(C1)Nc1ccccc1NC2c1ccc(-c2ccccc2)cc1 (stereo unspecified) | inactive |
| CCCOc1ccc(C2Nc3ccccc3NC3=C2C(=O)CC(c2ccc(OC)c(OC)c2)C3)cc1 (stereo unspecified) | inactive |
| CCOc1cc(C2Nc3ccccc3NC3=C2C(=O)CC(c2ccc(OC)cc2)C3)cc(Cl)c1O (stereo unspecified) | inactive |
| COc1ccc(C2CC(=O)C3=C(C2)Nc2ccccc2NC3c2cccc(C(F)(F)F)c2)cc1OC (stereo unspecified) | inactive |
| CCOc1cccc(C2Nc3ccccc3NC3=C2C(=O)CC(c2ccc(OC)cc2)C3)c1 (stereo unspecified) | inactive |
| COc1ccc(C2CC(=O)C3=C(C2)Nc2ccccc2NC3c2cccc(Br)c2)cc1OC (stereo unspecified) | inactive |
| COc1ccc(C2CC(=O)C3=C(C2)Nc2ccccc2NC3c2ccccc2C(F)(F)F)cc1OC (stereo unspecified) | inactive |
| O=C1CC(c2ccccc2)CC2=C1C(c1c(F)cccc1Cl)Nc1ccccc1N2 (stereo unspecified) | inactive |
| COc1ccc(C2CC(=O)C3=C(C2)Nc2ccccc2NC3c2cccc(Oc3ccccc3)c2)cc1OC (stereo unspecified) | inactive |
| COc1ccc(C2CC(=O)C3=C(C2)Nc2ccccc2NC3c2cc(C)ccc2C)cc1 (stereo unspecified) | inactive |
